Laboratory results as given in patent US7507727B2, “Substituted quinobenzoxazine analogs and methods of using thereof” (Cylene Pharmaceuticals, Inc., priority 2003, dated 2009).

What follows are molecules tested against c-Myc template DNA (c-myc quadruplex) (assay: Quadruplex binding / stop assay (Taq polymerase arrest, capillary electrophoresis)). Details: read-out: S DATA; Table 1D, stop assay data.

Row | IC50 [µM] | Structure (SMILES)
1 | 1.75 | CC1(C)CC(NC(=O)c2cn3c4c(c(N5CCC(NC(=O)OC(C)(C)C)C5)ccc4c2=O)Oc2cc4ccccc4cc2-3)CC(C)(C)N1 (stereo not shown) [compound 1537]
2 | 1 | CCCCN1CCC(CNc2c(F)cc3c(=O)c(C(=O)NCCC4CCCN4C)cn4c3c2Oc2cc3ccccc3cc2-4)CC1 (stereo not shown) [compound 1691]
3 | > 15 | CC(C)(C)OC(=O)NC1CCN(C(=O)c2cn3c4c(c(N5CCC(NC(=O)OC(C)(C)C)C5)c(F)cc4c2=O)Oc2ccccc2-3)C1 (stereo not shown) [compound 1586]
4 | 5.1 | O=C(NCCN1CCCC1)c1cn2c3c(c(N4CCN(c5ncccn5)CC4)c(F)cc3c1=O)Oc1cc(Cl)ccc1-2 [compound 1813]
5 | 1.75 | CN1CCCC1CCNC(=O)c1cn2c3c(c(N4CCC(NC(=O)OC(C)(C)C)CC4)c(F)cc3c1=O)Oc1cc3ccccc3cc1-2 (stereo not shown) [compound 1498]
6 | 1.75 | COc1cccc(CCNc2c(F)cc3c(=O)c(C(=O)NCCC4CCCN4C)cn4c3c2Oc2cc3ccccc3cc2-4)c1 (stereo not shown) [compound 1669]
7 | 4 | CN1CCCC1CCNC(=O)c1cn2c3c(c(NC[C@@H]4CCCO4)c(F)cc3c1=O)Oc1cc3ccccc3cc1-2 (stereo partly shown) [compound 1737]
8 | > 15 | CN1CCN(CCCNC(=O)c2cn3c4c(c(NCCN5CCCC5)c(F)cc4c2=O)Oc2ccccc2-3)CC1 [compound 1594]
9 | 0.75 | CCN(CC)CCCC(C)Nc1c(F)cc2c(=O)c(C(=O)NCCC3CCCN3C)cn3c2c1Oc1cc2ccccc2cc1-3 (stereo not shown) [compound 1499]
10 | 0.75 | CN1CCCC1CCNC(=O)c1cn2c3c(c(NCCN4CCCC4)ccc3c1=O)Oc1cc3ccccc3cc1-2 (stereo not shown) [compound 1517]
11 | > 15 | CC(C)N1CCN(c2c(F)cc3c(=O)c(C(=O)NCCN4CCCC4)cn4c3c2Oc2ccccc2-4)CC1 [compound 1566]
12 | 1.75 | NC1CCN(C(=O)c2cn3c4c(c(N5CC6CCCNC6C5)c(F)cc4c2=O)Oc2cc4ccccc4cc2-3)C1 (stereo not shown) [compound 1638]
13 | 1 | N=C(N)NCCCNC(=O)c1cn2c3c(c(N4CC5CCCNC5C4)c(F)cc3c1=O)Oc1cc3ccccc3cc1-2 (stereo not shown) [compound 1647]
14 | 10 | O=C(NCCN1CCCC1)c1cn2c3c(c(N4CCOCC4)c(F)cc3c1=O)Oc1cc(Cl)ccc1-2 [compound 1815]
15 | > 15 | NCCCCNC(=O)c1cn2c3c(c(NCCN4CCOCC4)c(F)cc3c1=O)Oc1ccccc1-2 [compound 1611]
16 | > 15 | CN1CCCC1CCNC(=O)c1cn2c3c(c(NCC(C)(C)CO)c(F)cc3c1=O)Oc1cc3ccccc3cc1-2 (stereo not shown) [compound 1744]
17 | 0.75 | CC1(C)CC(NC(=O)c2cn3c4c(c(NCCN5CCCC5)ccc4c2=O)Oc2cc4ccccc4cc2-3)CC(C)(C)N1 [compound 1519]
18 | > 15 | CN1CCCC1CCNC(=O)c1cn2c3c(c(NCCN4CCOCC4)c(F)cc3c1=O)Oc1ccccc1-2 (stereo not shown) [compound 1608]
19 | > 15 | O=C(NCCN1CCCC1)c1cn2c3c(c(SCCc4cnccn4)c(F)cc3c1=O)Oc1cc(Cl)ccc1-2 [compound 1784]
20 | > 15 | CC1(C)CC(NC(=O)c2cn3c4c(c(NCCN5CCOCC5)c(F)cc4c2=O)Oc2ccccc2-3)CC(C)(C)N1 [compound 1615]
21 | > 15 | COc1ccc(CCNC(=O)c2cn3c4c(c(N5CCC(N)C5)c(F)cc4c2=O)Oc2cc4ccccc4cc2-3)cc1OC (stereo not shown) [compound 1705]
22 | 0.75 | CN1CCN(CCCNc2ccc3c(=O)c(C(=O)NCCN4CCCC4)cn4c3c2Oc2cc3ccccc3cc2-4)CC1 [compound 1552]
23 | 1.8 | CN1CCCC1CCNC(=O)c1cn2c3c(c(NCCCN4CCCC4=O)c(F)cc3c1=O)Oc1cc3ccccc3cc1-2 (stereo not shown) [compound 1660]
24 | 0.69 | CCc1ccc(CCNc2c(F)cc3c(=O)c(C(=O)NCCC4CCCN4C)cn4c3c2Oc2cc3ccccc3cc2-4)cc1OC (stereo not shown) [compound 1679]
25 | > 15 | CN1CCCC1CCNC(=O)c1cn2c3c(c(NCCCNC(=O)OC(C)(C)C)c(F)cc3c1=O)Oc1cc(Cl)ccc1-2 (stereo not shown) [compound 1808]
26 | > 15 | O=C(NCCN1CCCC1)c1cn2c3c(c(SCCc4cnccn4)c(F)cc3c1=O)Oc1ccc(Cl)cc1-2 [compound 1783]
27 | 2.5 | COc1cccc(CCNc2c(F)cc3c(=O)c(C(=O)NCCC4CCCN4C)cn4c3c2Oc2cc3ccccc3cc2-4)c1OC (stereo not shown) [compound 1673]
28 | > 15 | CN(C)c1cccc(CNC(=O)c2cn3c4c(c(N5CCC(N)C5)c(F)cc4c2=O)Oc2cc4ccccc4cc2-3)c1 (stereo not shown) [compound 1714]

Same assay, conditions: read-out: Stop Data c-Myc μM; concentration at which 50% of the DNA was arrested (arrested:full-length 1:1)

Row | Structure (SMILES) | IC50 [µM]
29 | CN1CCN(CCCNC(=O)c2cn3c4cc5c(=O)c6ccccc6c(=O)c5cc4oc4c(N5CCC(NC(=O)OC(C)(C)C)C5)c(F)cc(c2=O)c43)CC1 (stereo not shown) [compound 169] | 1.75
30 | CN1CCN(CCCNC(=O)c2cn3c4c(c(NCCN5CCCC5)c(F)cc4c2=O)Oc2c-3ccc3ccccc23)CC1 [compound 399] | 0.75
31 | CN1CCN(CCCNC(=O)c2cn3c4c(c(N5CC[C@@H](N)C5)c(F)cc4c2=O)Oc2c-3ccc3ccccc23)CC1 [compound 304] | 1.13
32 | O=C(NCCCN1CCOCC1)c1cn2c3c(c(NCCCN4CCOCC4)c(F)cc3c1=O)Oc1cc3c(cc1-2)oc1ccccc13 [compound 143] | 1.75
33 | CC(C)CC(C)(C)CNC(=O)c1cn2c3c(c(N4CCC(NC(=O)OC(C)(C)C)C4)c(F)cc3c1=O)Oc1cc3ccccc3cc1-2 (stereo not shown) [compound 186] | 1.75
34 | CN(C)CCCNc1c(F)cc2c(=O)c(C(=O)NCCC3CCCN3C)cn3c2c1Oc1cc2ccccc2cc1-3 (stereo not shown) [compound 437] | 0.75
35 | Nc1c(F)cc2c(=O)c(C(=O)O)cn3c2c1Oc1c-3ccc2ccccc12 [compound 16] | 0.9
36 | CC(C)(C)OC(=O)NC1CCN(c2c(F)cc3c(=O)c(C(=O)NCc4nc5ccccc5[nH]4)cn4c3c2Oc2cc3ccccc3cc2-4)C1 (stereo not shown) [compound 184] | 1.75
37 | CN1CCN(CCCNC(=O)c2cn3c4c(c(N5CCC(N)C5)c(F)c(N)c4c2=O)Oc2cc4ccccc4cc2-3)CC1 (stereo not shown) [compound 240] | 1.75
38 | O=C(CCN1CCCC1)Nc1c(F)cc2c(=O)c(C(=O)NCCN3CCCC3)cn3c2c1Oc1cc2ccccc2cc1-3 [compound 90] | 2.5
39 | COc1ccc2[nH]cc(CCNC(=O)c3cn4c5c(c(N6CCC(N)C6)c(F)cc5c3=O)Oc3cc5ccccc5cc3-4)c2c1 (stereo not shown) [compound 299] | 1.75
40 | CC(=O)N[C@@H]1CCN(c2c(F)cc3c(=O)c(C(=O)NCCCN4CCOCC4)cn4c3c2Oc2cc3c(cc2-4)oc2ccccc23)C1 [compound 178] | 1.75
41 | NC1CCN(c2c(F)cc3c(=O)c(C(=O)NCCN4CCCCC4)cn4c3c2Oc2cc3ccccc3cc2-4)C1 (stereo not shown) [compound 195] | 1.75
42 | CN1CCCC1CCNc1c(F)cc2c(=O)c(C(=O)NCCCn3ccnc3)cn3c2c1Oc1cc2c(cc1-3)oc1ccccc12 (stereo not shown) [compound 159] | 1.75
43 | O=C(O)c1cn2c3c(c(NCCN4CCCC4)c(F)cc3c1=O)Oc1c-2ccc2ccccc12 [compound 3] | 2.5
44 | O=C(NCCN1CCCC1)c1cn2c3c(c(F)c(F)cc3c1=O)Oc1cc3c(cc1-2)oc1ccccc13 [compound 113] | 1.75
45 | O=C(NCCN1CCOCC1)c1cn2c3cc4c(cc3oc3c(NCCN5CCCC5)c(F)cc(c1=O)c32)c(=O)c1ccccc14 [compound 424] | 0.75

Row | Structure (SMILES) | IC50 [µM]
46 | O=C(NCCN1CCOCC1)c1cn2c3c(c(NCCN4CCCC4)ccc3c1=O)Oc1cc3ccccc3cc1-2 [compound 268] | 1.75
47 | Nc1c(F)c(NCCCN2CCOCC2)c2c3c1c(=O)c(C(=O)O)cn3-c1cc3ccccc3cc1O2 [compound 14] | 1.75
48 | CN1CCN(CCCNC(=O)c2cn3c4c(c(N5CC[C@@H](NC(=O)CCN6CCN(C)CC6)C5)c(F)cc4c2=O)Oc2cc4c(cc2-3)oc2ccccc24)CC1 [compound 173] | 1.75
49 | N=C(N)NCCCCNC(=O)c1cn2c3c(c(NCCN4CCCC4)c(F)cc3c1=O)Oc1cc3ccccc3cc1-2 [compound 334] | 1
50 | CN1CCCC1CCNc1c(F)cc2c(=O)c(C(=O)N3CC[C@H](N)C3)cn3c4cc5c(cc4oc1c23)c(=O)c1ccccc15 (stereo partly shown) [compound 215] | 1.75
51 | O=C(NCCCN1CCOCC1)c1cn2c3cc4c(cc3oc3c(NCCN5CCOCC5)c(F)cc(c1=O)c32)c(=O)c1ccccc14 [compound 205] | 1.75
52 | CC(C)(C)OC(=O)N[C@H]1CCN(c2c(F)cc3c(=O)c(C(=O)NCCN4CCCC4)cn4c5cc6c(cc5oc2c34)c(=O)c2ccccc26)C1 [compound 202] | 1.75
53 | O=C(NCCCn1ccnc1)c1cn2c3c(c(NCCCN4CCOCC4)c(F)cc3c1=O)Oc1cc3c(cc1-2)oc1ccccc13 [compound 313] | 1
54 | CN1CCCC1CCNC(=O)c1cn2c3c(c(NCCN4CCOCC4)c(F)cc3c1=O)Oc1cc3c(cc1-2)oc1ccccc13 (stereo not shown) [compound 147] | 1.75
55 | CC1(C)CC(NC(=O)c2cn3c4c(c(N5CCC(N)C5)c(F)cc4c2=O)Oc2cc4ccccc4cc2-3)CC(C)(C)N1 (stereo not shown) [compound 445] | 0.75
56 | CN1CCCC1CCNC(=O)c1cn2c3c(c(N4CC[C@@H](NC(=O)OC(C)(C)C)C4)c(F)cc3c1=O)Oc1cc3ccccc3cc1-2 (stereo partly shown) [compound 120] | 1.75
57 | CN1CCN(CCCNC(=O)c2cn3c4c(c(NCCN5CCOCC5)c(F)cc4c2=O)Oc2cc4ccccc4cc2-3)CC1 [compound 55] | 2.5
58 | CN1CCN(CCCNC(=O)c2cn3c4c(c(NCCCN5CCOCC5)c(F)cc4c2=O)Oc2c-3ccc3ccccc23)CC1 [compound 127] | 1.75
59 | COc1ccc2c(CCNc3c(F)cc4c(=O)c(C(=O)NCCC5CCCN5C)cn5c4c3Oc3cc4ccccc4cc3-5)c[nH]c2c1 (stereo not shown) [compound 288] | 1.75
60 | Cc1ncn(C(=O)c2cn3c4c(c(N5CCC(N)C5)c(F)cc4c2=O)Oc2cc4ccccc4cc2-3)c1CO (stereo not shown) [compound 199] | 1.75
61 | CN1CCCC1CCNC(=O)c1cn2c3c(c(Nc4ccccc4N4CCOCC4)c(F)cc3c1=O)Oc1cc3ccccc3cc1-2 (stereo not shown) [compound 264] | 1.75
62 | CN1CCCC1CCNc1c(F)cc2c(=O)c(C(=O)N3CC[C@H](NC(=O)OC(C)(C)C)C3)cn3c4cc5c(cc4oc1c23)c(=O)c1ccccc15 (stereo partly shown) [compound 206] | 1.75

Next, values leading:

Row | IC50 [µM] | Structure (SMILES)
63 | 0.75 | CN(C)CCCCNC(=O)c1cn2c3c(c(NCCC4CCCN4C)ccc3c1=O)Oc1cc3ccccc3cc1-2 (stereo not shown) [compound 450]
64 | 0.75 | O=C(NCCN1CCCC1)c1cn2c3c(c(N4CCC(c5cnccn5)C4)c(F)cc3c1=O)Oc1cc3ccccc3cc1-2 (stereo not shown) [compound 462]
